{"source": "paper PMC11007962", "about": "“First-in-human study of GFH018, a small molecule inhibitor of transforming growth factor-β receptor I inhibitor, in patients with advanced solid tumors” (BMC Cancer, 2024)", "origin": "cited, not measured here", "molecules": {"B1": {"name": "bintrafusp alfa: bifunctional fusion protein targeting TGF-β and PD-L1 (antibody, chains of the INN, looked up, V domains shown)", "VH": "EVQLLESGGGLVQPGGSLRLSCAASGFTFSSYIMMWVRQAPGKGLEWVSSIYPSGGITFYADTVKGRFTISRDNSKNTLYLQMNSLRAEDTAVYYCARIKLGTVTTVDYWGQGTLVTVSS", "VL": "QSALTQPASVSGSPGQSITISCTGTSSDVGGYNYVSWYQQHPGKAPKLMIYDVSNRPSGVSNRFSGSKSGNTASLTISGLQAEDEADYYCSSYTSSSTRVFGTGTKVTVL"}}, "key": {"[1]": {"design": "method as in PMID 25488804, PMID 26309397", "conditions": "consecutive regimens; cited from earlier work"}, "[2]": {"tested_on": "advanced HPV-associated malignancies", "design": "method as in PMID 33323462", "conditions": "patients with advanced HPV-associated malignancies; comparators are historical data; cited from earlier work"}}}
{"molecule": "Cc1cccc(-c2nn3c(c2-c2ccnc4ccc(C(N)=O)cc24)CCC3)n1", "note": "[galunsertib, reference compound]", "values": [{"measurement": "cardiac findings in toxicology studies", "setting": "[1]", "value": "cardiac lesions occur"}]}
{"molecule": "nivolumab: historical comparator in HPV-associated malignancies", "values": [{"measurement": "ORR", "setting": "[2]", "value": 24, "unit": "%"}]}
{"molecule": "pembrolizumab: historical comparator in HPV-associated malignancies", "values": [{"measurement": "ORR", "setting": "[2]", "value": 24, "unit": "%"}]}
{"molecule": "B1", "values": [{"measurement": "ORR", "setting": "[2]", "value": 35.6, "unit": "%"}]}
